Reference: PubChem BioAssay (NCI)
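How tested: cells in 96-well plates exposed to compound for 48 hours at five concentrations. GI50 is the concentration that inhibits growth by half. TGI: total growth inhibition.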

How the values were obtained:
Assay in all cases: growth of human tumour cells (NCI), 48 h
[1] = system: ACHN renal
[2] = system: COLO 205 colon
[3] = system: EKVX NSCLC
[4] = system: HCC-2998 colon
[5] = system: HS 578T breast
[6] = system: NCI/ADR-RES ovarian
[7] = system: SF-295 CNS
[8] = system: SK-MEL-2 melanoma
[9] = system: UACC-62 melanoma
[10] = system: UO-31 renal

SMILES | TGI [1] [µM] | TGI [2] [µM] | TGI [3] [µM] | TGI [4] [µM] | TGI [5] [µM] | TGI [6] [µM] | TGI [7] [µM] | TGI [8] [µM] | TGI [9] [µM] | TGI [10] [µM] | GI50 [2] [µM] | GI50 [3] [µM] | GI50 [8] [µM] | GI50 [10] [µM]
Cc1c(-c2ccccc2)c(C#N)c2nnn(-c3ccccc3)c(=O)n12 | > 100 | > 100 | > 100 | > 100 | > 100 | > 100 | > 100 | > 100 | > 100 | > 100 | – | – | – | –
CCCCC/C=C1/CC(CO)(COC(=O)CC(C(C)C)C(C)C)OC1=O (stereo unspecified) | 24.7 | 14.7 | 31.5 | 35.2 | 9.09 | 38.9 | 19.5 | 42.9 | 29.6 | 24.1 | – | – | – | –
O=[N+]([O-])C(/C(Cl)=C(/Cl)N1CCOCC1)=C1\NCCO1 | > 100 | > 100 | > 100 | > 100 | > 100 | > 100 | > 100 | > 100 | > 100 | > 100 | – | – | – | –
CCCC(Sc1nc(N)nc2nc[nH]c12)C(=O)O (stereo unspecified) | > 100 | > 100 | – | 76.9 | > 100 | > 100 | > 100 | > 100 | > 100 | > 100 | – | – | – | –
Cc1c(CNc2ccc(Cl)c(C(=O)NC(CC(=O)O)C(=O)O)c2)ccc2nc(N)nc(N)c12 (stereo unspecified) | > 1000 | > 1000 | > 1000 | – | > 1000 | > 1000 | > 1000 | > 1000 | > 1000 | > 1000 | 114 | 284 | > 1000 | 1.86
Cc1oc2nc1C(=O)NCc1nc(cs1)C(=O)N[C@H](C(C)C)c1nc(cs1)C(=O)N[C@H]2C | > 100 | > 100 | > 100 | > 100 | > 100 | > 100 | 99.4 | – | > 100 | > 100 | – | – | – | –
C=Nc1ccc([N+](=O)[O-])cc1 | > 100 | > 100 | > 100 | > 100 | – | – | > 100 | > 100 | > 100 | > 100 | – | – | – | –
CN(C)CCCn1c(Cc2ccccc2)nc2cc(C(F)(F)F)ccc21 | > 100 | 34.7 | 67.6 | – | > 100 | > 100 | 33.5 | 33 | 34.4 | 5.32 | – | – | – | –
O=C1COC(c2ccccc2O)=NN1CCCN1CCCC1 | > 100 | > 100 | > 100 | – | > 100 | > 100 | > 100 | > 100 | > 100 | > 100 | – | – | – | –
Cc1cn(C2CC(O)C(CO)C2C)c(=O)[nH]c1=O (stereo unspecified) | > 100 | > 100 | > 100 | > 100 | – | – | > 100 | > 100 | > 100 | > 100 | – | – | – | –
CCNc1nc(N)c(C(=O)c2ccc(Cl)cc2)s1 | > 100 | 47 | 45.5 | – | 36.9 | > 100 | – | > 100 | > 100 | 40.2 | – | – | – | –
Cc1ccc(S(=O)(=O)NC(=O)NC(Cc2c[nH]c3ccccc23)C(=O)O)cc1 (stereo unspecified) | – | > 100 | – | – | > 100 | > 100 | > 100 | > 100 | – | > 100 | – | – | – | –
CC1CN=C(Nc2cccc(C(F)(F)F)c2)S1 (stereo unspecified) | > 100 | – | > 100 | > 100 | > 100 | – | – | > 100 | > 100 | 78.6 | – | – | – | –
COc1ccc2c(c1)OCC1(O)Cc3ccccc3OC21 (stereo unspecified) | > 100 | > 100 | > 100 | > 100 | – | > 100 | > 100 | > 100 | > 100 | > 100 | – | – | – | –
CN(C)N=Nc1ccc([N+](=O)[O-])cc1C(N)=O | – | > 100 | > 100 | > 100 | – | > 100 | > 100 | > 100 | > 100 | > 100 | – | – | – | –
Cc1cccc2c1C(=O)C1(Cc3ccccc3C1=O)C2 (stereo unspecified) | > 100 | > 100 | > 100 | > 100 | > 100 | > 100 | > 100 | – | > 100 | 96.2 | – | – | – | –
Nc1ccc2c(c1)C1Oc3ccccc3CC1CO2 (stereo unspecified) | – | > 100 | > 100 | > 100 | – | > 100 | > 100 | > 100 | > 100 | > 100 | – | – | – | –
COc1c(-c2cc(C)c(Cl)c(=O)[nH]2)c(O)c(OC)c2occc12 | > 100 | > 100 | > 100 | > 100 | – | > 100 | > 100 | > 100 | > 100 | > 100 | – | – | – | –
C=CCOc1ccc(C2c3c([nH][nH]c3=O)CC(O)(OCC)C2C(=O)OCC)cc1OC (stereo unspecified) | > 100 | > 100 | > 100 | > 100 | > 100 | > 100 | > 100 | > 100 | – | > 100 | – | – | – | –
COc1ccc(/C=N\N2CC(=O)N3C4C=CC(CC4)N3C2=O)cc1 (stereo unspecified) | > 100 | > 100 | > 100 | – | > 100 | > 100 | > 100 | > 100 | > 100 | > 100 | – | – | – | –
CSC1=Nc2ccccc2-c2nc(-c3ccccc3)cc(-c3ccccc3)c2C1 | 41.8 | > 100 | > 100 | > 100 | – | > 100 | 64.2 | – | 60.5 | 76.6 | – | – | – | –
CCOC(=O)c1ccc(-c2cc(C)[nH]n2)[nH]1 | > 100 | > 100 | > 100 | – | – | > 100 | > 100 | > 100 | > 100 | > 100 | – | – | – | –
C[C@]12CC[C@H]3[C@@H](CCC4=CC(=O)C=C[C@@]43O)[C@@H]1CCC2=O | > 100 | > 100 | > 100 | > 100 | – | > 100 | > 100 | > 100 | > 100 | > 100 | – | – | – | –
N/C(=N\N=C\c1ccc2c(c1)OCO2)NO | 47.9 | 40.3 | > 100 | > 100 | > 100 | 23.1 | > 100 | 61.1 | 49.2 | – | – | – | – | –
